Measured values from patent EP0267319A1, “Anti-spasmodic agents having a ring in the main chain” (United Pharmaceuticals, Inc., priority 1986, dated 1988).
Structures can show the parent of a compound that is named as a salt.

System: rabbit urinary bladder strip
Experiment: relaxant effect on bethanechol-contracted rabbit urinary bladder strips (organ bath)
Assay type: cell-based
Conditions: for Decrease in force of contraction of rabbit bladder strip / Increase in length of rabbit bladder strip: strips pre-contracted with bethanechol 150 µM; for Increase in length of rabbit bladder strip: cumulative dosing, read 5 minutes after addition; for % background relaxation: term not explained
Description: The pharmological actions of one anti-spasmodic compound was studied in a rabbit urinary bladder strip preparation. In general, longitudinal strips were prepared from the base of freshly isolated rabbit bladders and were then suspended under near-physiological conditions in tissue baths. The strips were attached to force transducers and both contractile and relaxant activity was measured. To measure the relaxant effects on the anti-spasmodic compounds on previously-contracted bladder strips, the strips were initially exposed to the muscarinic receptor agonist bethanechol and allowed to reach a steady level of contractile activity for 20 minutes. At this point cumulative dose-responses to the compound was recorded. The rabbit abdomens were opened through a vertical midline incision. The bladder and urethra were dissected free of all surrounding tissues, removed and placed in aerated (95% O₂:5% CO₂) Kreb's-bicarbonate buffer (pH:7.4) of the following composition ([…]):KCl 4.6, CaCl₂·2H₂O 2.5, KH₂PO₄ 1.2, MgSO₄·7H₂O 1.2, NaCl 118.2, NaHCO₃ 24.8, and glucose 10.0. Longitudinal muscle strips were prepared from the bladder base (approximately 6 mm x 4 mm) and suspended in an organ bath containing Kreb's buffer (37°C) which was continuously aerated with O₂:CO₂ (95%:5%). Tissues were allowed to equilibrate to a tension of 2 gm for sixty minutes during which time buffer was replaced at 20 minute intervals. The contractile and relaxant responses of the muscle strips were measured isometrically with a Statham UC3 force-displacement transducer and recorded on an Electronics for Medicine DR8 oscillographic recorder. Bethanechol was employed as the representative cholinergic agonist and, following equilibration, was added to the baths for a final concentration of 150 µM. The tissues were allowed 20 minutes to achieve a maintained level of contraction in response to bethanechol and, at this point, cumulative dose-response measurements for one anti-spasmodic compound were started at concentrations ranging from 10⁻⁸ M to 10⁻⁴M. Solutions were added in volumes up to 100 µl and were prepared fresh each day by dissolving them in distilled:deionzed water. Responses were measured 5 minutes following any particular cumulative addition and were expressed as a percentage of maximal relaxation (e.g. maximal relaxation is the baseline or pre-bethanechol level of muscle tone).
Dose responses, measured from the standard bethanechol-contracted rabbit bladder strips, at various concentrations of 4-t-butyl-benzoyl-thio-S-(2-diethylaminoethyl)-ester·HCl [drawing 12] are presented in Table I: […]

SMILES: CCN(CC)CCSC(=O)c1ccc(C(C)(C)C)cc1 [4-t-butyl-benzoyl-thio-S-(2-diethylaminoethyl)-ester·HCl]
- Decrease in force of contraction of rabbit bladder strip (10^-4 moles/liter): 0.67 gm
- Increase in length of rabbit bladder strip (10^-4 moles/liter): 3.2 cm
- % background relaxation (10^-4 moles/liter): 31.8%
- Decrease in force of contraction of rabbit bladder strip (10^-5 moles/liter): 0.27 gm
- Increase in length of rabbit bladder strip (10^-5 moles/liter): 1.3 cm
- % background relaxation (10^-5 moles/liter): 9.5%
- Decrease in force of contraction of rabbit bladder strip (10^-6 moles/liter): 0.08 gm
- Increase in length of rabbit bladder strip (10^-6 moles/liter): 0.4 cm
- % background relaxation (10^-6 moles/liter): 0.0%
- Decrease in force of contraction of rabbit bladder strip (10^-7 moles/liter): 0.04 gm
- Increase in length of rabbit bladder strip (10^-7 moles/liter): 0.2 cm
- % background relaxation (10^-7 moles/liter): 0.0%
- Decrease in force of contraction of rabbit bladder strip (10^-8 moles/liter): 0.02 gm
- Increase in length of rabbit bladder strip (10^-8 moles/liter): 0.1 cm
- % background relaxation (10^-8 moles/liter): 0.0%
- inhibition at 100 µM (Oryctolagus cuniculus, 5 min, 10^-4 moles/liter, maximal relaxation = pre-bethanechol level of muscle tone, read-out: % of maximum relaxation): 40.5%
- inhibition at 10 µM (Oryctolagus cuniculus, 5 min, 10^-5 moles/liter, maximal relaxation = pre-bethanechol level of muscle tone, read-out: % of maximum relaxation): 16.5%
- inhibition at 1 µM (Oryctolagus cuniculus, 5 min, 10^-6 moles/liter, maximal relaxation = pre-bethanechol level of muscle tone, read-out: % of maximum relaxation): 5.2%
- inhibition at 0.1 µM (Oryctolagus cuniculus, 5 min, 10^-7 moles/liter, maximal relaxation = pre-bethanechol level of muscle tone, read-out: % of maximum relaxation): 2.6%
- inhibition at 0.01 µM (Oryctolagus cuniculus, 5 min, 10^-8 moles/liter, maximal relaxation = pre-bethanechol level of muscle tone, read-out: % of maximum relaxation): 1.3%
